# From patent publication US20050233467A1, “Visible wavelength fluorescent calcium indicators that are (i) leakage resistant and (ii) operate near membranes” (priority 2004, published 2005)
# Test system: myocytes of mouse small mesenteric arteries
# Assay: Localization of dye in walls of mouse small mesenteric arteries (imaging)
# Type: cell-based
# Settings: mouse small mesenteric artery wall, activated cells
# From the text: The plane is tangential to the artery, very close to the coverslip. The spindle-shaped cells run horizontally, the artery lumen runs vertically. […] The FLUO-MOMO images are quite bright because the cells have been activated and [Ca^2+] cyt has risen. […] (Photo courtesy of Dr. Blaustein of The University of Maryland Medical School.)
smiles,measurement,value
CCN(CC)c1ccc(/C=C/C=C/C=C/c2cc[n+](CCC[N+](CC)(CC)CC)cc2)cc1.[Br-].[Br-] [FM4-64],localization of dye in the cell,localizes to the plasma membrane
